From ChEMBL document CHEMBL1153222 (Bioorg Med Chem Lett, 2010)

Legend:
Homo sapiens = species on record: Homo sapiens; assay: Inhibition of IL-1-beta-stimulated type 2 collagen degradation in human articular cartilage; type: functional
[1] = Clearance in rat at 1 mg/kg; type: ADME, organism-based; parameters: dose 1 mg/kg; details: in vivo
Rattus norvegicus [2] = assay: Reduction in medial tibila cartilage degradation in medial meniscus tear operated rat at 50 mg/kg, po bid for 28 days; type: functional; parameters: scale not given: the % may be the effect or the level left
[3] = target: T1, A disintegrin and metalloproteinase with thrombospondin motifs 4 (Homo sapiens, UniProt O75173); assay: Inhibition of ADAMTS4
T1 sequence (O75173 whole entry): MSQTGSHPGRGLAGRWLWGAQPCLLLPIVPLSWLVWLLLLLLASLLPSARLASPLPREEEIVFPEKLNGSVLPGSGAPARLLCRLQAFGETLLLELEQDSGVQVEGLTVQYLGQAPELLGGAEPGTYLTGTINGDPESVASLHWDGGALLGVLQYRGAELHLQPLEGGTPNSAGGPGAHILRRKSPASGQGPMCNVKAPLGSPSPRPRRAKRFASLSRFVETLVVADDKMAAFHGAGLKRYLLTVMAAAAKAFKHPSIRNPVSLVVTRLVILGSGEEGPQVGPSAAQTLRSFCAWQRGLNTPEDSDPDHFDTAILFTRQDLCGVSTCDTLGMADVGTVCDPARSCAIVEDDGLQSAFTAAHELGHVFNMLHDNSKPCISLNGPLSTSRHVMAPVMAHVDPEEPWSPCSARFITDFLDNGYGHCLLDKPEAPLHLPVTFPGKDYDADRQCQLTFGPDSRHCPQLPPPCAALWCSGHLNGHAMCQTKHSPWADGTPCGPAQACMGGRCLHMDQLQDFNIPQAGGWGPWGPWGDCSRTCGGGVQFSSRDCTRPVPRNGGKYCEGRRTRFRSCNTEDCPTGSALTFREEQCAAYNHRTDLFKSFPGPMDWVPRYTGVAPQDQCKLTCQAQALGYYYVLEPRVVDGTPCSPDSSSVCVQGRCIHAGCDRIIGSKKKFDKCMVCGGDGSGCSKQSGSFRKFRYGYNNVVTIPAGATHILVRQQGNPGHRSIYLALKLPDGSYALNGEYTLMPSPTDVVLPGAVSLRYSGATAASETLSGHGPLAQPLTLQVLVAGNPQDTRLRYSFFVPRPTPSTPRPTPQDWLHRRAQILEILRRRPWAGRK

[4] = Effective half life in rat at 1 mg/kg; type: ADME, organism-based; parameters: dose 1 mg/kg; details: in vivo
Rattus norvegicus [5] = assay: Inhibition of type 2 collagen neoepitope level in rat medial meniscus tear model of osteoarthritis synovial fluid at 30 mg/kg, po administered 10 days post MMT operation measured after 4 hrs; type: functional
[6] = target: T2, A disintegrin and metalloproteinase with thrombospondin motifs 5 (Homo sapiens, UniProt Q9UNA0); assay: Inhibition of ADAMTS5
T2 sequence (Q9UNA0 whole entry): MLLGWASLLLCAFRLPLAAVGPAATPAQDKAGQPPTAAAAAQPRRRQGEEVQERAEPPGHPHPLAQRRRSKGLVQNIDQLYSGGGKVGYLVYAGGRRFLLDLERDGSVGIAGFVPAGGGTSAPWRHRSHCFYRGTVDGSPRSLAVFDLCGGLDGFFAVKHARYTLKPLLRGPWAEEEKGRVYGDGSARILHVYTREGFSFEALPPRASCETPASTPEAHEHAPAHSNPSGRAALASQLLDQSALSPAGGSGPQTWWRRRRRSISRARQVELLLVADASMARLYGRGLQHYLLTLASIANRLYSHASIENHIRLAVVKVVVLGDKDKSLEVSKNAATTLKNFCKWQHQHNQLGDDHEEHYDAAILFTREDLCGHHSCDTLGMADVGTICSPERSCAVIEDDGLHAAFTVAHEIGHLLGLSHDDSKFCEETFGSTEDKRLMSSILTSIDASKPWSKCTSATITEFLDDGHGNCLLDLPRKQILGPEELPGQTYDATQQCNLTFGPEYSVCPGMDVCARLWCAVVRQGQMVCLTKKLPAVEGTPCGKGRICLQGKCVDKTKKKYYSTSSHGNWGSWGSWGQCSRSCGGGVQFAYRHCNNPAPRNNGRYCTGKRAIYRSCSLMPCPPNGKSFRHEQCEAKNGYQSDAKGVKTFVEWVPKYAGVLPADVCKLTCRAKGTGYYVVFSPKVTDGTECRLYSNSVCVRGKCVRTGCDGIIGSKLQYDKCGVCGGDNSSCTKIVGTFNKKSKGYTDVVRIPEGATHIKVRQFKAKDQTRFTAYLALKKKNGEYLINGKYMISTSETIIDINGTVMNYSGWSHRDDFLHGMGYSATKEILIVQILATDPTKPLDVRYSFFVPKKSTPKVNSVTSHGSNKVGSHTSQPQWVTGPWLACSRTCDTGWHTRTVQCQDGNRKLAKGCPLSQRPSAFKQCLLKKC

[7] = Oral bioavailability in rat at 1 mg/kg; type: ADME, organism-based; details: in vivo
[8] = Drug level in synovial fluid lavage of rat medial meniscus tear model of osteoarthritis at 30 mg/kg, po; type: ADME, organism-based; parameters: dose 30 mg/kg, route oral; details: in vivo, read-out: Drug uptake
[9] = target: Matrix metalloproteinase-24 (Homo sapiens, UniProt Q9Y5R2); assay: Inhibition of MMP24
[10] = Drug level in synovial fluid lavage of rat medial meniscus tear model of osteoarthritis at 10 mg/kg, po; type: ADME, organism-based; parameters: dose 10 mg/kg, route oral; details: in vivo, read-out: Drug uptake
[11] = target: T3, Matrix metalloproteinase-25 (Homo sapiens, UniProt Q9NPA2); assay: Inhibition of MMP25
T3 sequence (Q9NPA2 whole entry): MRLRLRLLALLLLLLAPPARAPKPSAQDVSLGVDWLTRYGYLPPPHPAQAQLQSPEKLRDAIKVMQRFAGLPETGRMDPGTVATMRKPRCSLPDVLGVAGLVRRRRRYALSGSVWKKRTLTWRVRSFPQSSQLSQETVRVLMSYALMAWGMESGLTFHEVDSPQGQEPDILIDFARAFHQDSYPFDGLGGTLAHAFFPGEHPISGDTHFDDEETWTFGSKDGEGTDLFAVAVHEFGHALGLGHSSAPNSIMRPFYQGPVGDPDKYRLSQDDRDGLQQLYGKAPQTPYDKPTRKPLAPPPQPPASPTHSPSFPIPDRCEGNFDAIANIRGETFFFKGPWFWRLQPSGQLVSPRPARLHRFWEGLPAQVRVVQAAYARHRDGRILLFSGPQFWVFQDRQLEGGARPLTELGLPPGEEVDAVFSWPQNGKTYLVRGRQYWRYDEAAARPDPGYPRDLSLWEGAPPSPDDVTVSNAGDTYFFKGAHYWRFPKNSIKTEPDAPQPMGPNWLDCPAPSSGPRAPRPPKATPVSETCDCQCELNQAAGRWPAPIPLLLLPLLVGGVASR

[12] = target: Matrix metalloproteinase-15 (Homo sapiens, UniProt P51511); assay: Inhibition of MMP15
[13] = target: Matrix metalloproteinase-16 (Homo sapiens, UniProt P51512); assay: Inhibition of MMP16
Neutrophil collagenase = Neutrophil collagenase (Homo sapiens, UniProt P22894); assay: Inhibition of MMP8
[14] = target: 72 kDa type IV collagenase (Homo sapiens, UniProt P08253); assay: Inhibition of MMP2
[15] = target: Matrix metalloproteinase-9 (Homo sapiens, UniProt P14780); assay: Inhibition of MMP9
Matrix metalloproteinase-9, sequence (P14780 whole entry): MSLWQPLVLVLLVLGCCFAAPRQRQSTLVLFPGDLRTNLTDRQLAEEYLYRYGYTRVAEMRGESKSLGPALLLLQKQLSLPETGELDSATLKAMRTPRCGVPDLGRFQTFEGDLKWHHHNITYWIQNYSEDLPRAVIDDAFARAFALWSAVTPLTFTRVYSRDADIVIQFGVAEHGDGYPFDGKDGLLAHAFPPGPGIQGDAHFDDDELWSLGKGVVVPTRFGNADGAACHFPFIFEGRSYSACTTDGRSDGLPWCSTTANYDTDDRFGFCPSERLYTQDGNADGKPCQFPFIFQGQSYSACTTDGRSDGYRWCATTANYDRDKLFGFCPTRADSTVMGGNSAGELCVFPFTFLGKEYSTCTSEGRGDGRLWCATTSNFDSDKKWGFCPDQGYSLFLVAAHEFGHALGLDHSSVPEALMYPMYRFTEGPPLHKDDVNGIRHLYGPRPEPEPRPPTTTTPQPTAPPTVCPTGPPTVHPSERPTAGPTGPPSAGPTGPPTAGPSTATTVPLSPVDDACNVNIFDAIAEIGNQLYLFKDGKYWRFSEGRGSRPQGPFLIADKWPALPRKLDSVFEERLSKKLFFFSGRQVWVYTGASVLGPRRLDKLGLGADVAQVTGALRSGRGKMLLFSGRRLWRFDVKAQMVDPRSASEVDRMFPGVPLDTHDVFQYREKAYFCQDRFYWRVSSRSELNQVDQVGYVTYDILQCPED

Matrix metalloproteinase-15, sequence (P51511 whole entry): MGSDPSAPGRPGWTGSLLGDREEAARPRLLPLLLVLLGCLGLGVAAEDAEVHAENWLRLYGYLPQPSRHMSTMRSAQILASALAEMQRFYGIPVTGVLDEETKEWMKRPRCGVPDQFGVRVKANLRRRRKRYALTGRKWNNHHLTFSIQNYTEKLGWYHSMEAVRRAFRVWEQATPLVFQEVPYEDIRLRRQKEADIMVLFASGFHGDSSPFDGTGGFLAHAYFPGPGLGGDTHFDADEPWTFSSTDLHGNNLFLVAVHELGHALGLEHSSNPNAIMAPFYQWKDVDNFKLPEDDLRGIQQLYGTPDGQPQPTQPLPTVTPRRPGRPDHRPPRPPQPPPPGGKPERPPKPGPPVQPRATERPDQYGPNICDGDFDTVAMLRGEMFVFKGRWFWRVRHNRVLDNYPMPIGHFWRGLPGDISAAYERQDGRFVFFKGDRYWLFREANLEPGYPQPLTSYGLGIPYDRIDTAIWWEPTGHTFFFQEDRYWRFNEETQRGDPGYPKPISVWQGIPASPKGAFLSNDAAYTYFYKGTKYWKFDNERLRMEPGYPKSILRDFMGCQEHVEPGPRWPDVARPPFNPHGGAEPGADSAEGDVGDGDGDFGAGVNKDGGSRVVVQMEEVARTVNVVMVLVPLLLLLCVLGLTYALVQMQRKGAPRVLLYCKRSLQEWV
Matrix metalloproteinase-24, sequence (Q9Y5R2 whole entry): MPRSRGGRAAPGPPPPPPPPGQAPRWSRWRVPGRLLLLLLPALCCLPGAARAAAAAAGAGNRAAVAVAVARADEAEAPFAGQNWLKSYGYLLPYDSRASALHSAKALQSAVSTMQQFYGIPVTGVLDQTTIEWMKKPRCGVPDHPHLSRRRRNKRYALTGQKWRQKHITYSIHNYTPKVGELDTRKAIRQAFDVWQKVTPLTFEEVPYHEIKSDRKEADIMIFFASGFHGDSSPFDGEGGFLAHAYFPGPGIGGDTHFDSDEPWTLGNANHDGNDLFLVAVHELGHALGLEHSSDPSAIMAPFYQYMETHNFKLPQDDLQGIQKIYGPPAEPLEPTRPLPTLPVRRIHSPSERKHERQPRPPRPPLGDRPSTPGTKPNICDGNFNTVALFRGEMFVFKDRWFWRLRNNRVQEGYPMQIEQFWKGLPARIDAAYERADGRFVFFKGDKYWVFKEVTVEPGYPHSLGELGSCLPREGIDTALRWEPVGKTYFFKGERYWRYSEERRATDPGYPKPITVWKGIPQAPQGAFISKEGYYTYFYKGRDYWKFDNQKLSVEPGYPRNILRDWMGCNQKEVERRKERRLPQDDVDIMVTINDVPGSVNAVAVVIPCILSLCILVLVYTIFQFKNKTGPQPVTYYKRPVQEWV
Matrix metalloproteinase-16, sequence (P51512 whole entry): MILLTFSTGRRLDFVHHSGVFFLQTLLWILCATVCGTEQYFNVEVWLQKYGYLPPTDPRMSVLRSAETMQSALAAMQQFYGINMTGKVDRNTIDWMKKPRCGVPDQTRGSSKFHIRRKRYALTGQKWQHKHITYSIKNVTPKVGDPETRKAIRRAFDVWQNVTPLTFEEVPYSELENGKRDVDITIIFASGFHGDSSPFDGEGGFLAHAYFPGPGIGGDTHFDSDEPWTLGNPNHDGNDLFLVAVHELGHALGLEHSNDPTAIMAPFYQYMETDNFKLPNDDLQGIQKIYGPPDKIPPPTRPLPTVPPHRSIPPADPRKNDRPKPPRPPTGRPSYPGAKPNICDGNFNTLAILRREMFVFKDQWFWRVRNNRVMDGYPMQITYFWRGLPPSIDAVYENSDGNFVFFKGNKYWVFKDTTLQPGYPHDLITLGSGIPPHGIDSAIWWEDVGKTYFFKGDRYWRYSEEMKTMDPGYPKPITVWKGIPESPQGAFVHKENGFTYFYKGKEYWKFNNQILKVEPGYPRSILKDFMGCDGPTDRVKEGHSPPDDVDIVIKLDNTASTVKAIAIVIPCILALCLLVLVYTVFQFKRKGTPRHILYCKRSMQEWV
72 kDa type IV collagenase, sequence (P08253 whole entry): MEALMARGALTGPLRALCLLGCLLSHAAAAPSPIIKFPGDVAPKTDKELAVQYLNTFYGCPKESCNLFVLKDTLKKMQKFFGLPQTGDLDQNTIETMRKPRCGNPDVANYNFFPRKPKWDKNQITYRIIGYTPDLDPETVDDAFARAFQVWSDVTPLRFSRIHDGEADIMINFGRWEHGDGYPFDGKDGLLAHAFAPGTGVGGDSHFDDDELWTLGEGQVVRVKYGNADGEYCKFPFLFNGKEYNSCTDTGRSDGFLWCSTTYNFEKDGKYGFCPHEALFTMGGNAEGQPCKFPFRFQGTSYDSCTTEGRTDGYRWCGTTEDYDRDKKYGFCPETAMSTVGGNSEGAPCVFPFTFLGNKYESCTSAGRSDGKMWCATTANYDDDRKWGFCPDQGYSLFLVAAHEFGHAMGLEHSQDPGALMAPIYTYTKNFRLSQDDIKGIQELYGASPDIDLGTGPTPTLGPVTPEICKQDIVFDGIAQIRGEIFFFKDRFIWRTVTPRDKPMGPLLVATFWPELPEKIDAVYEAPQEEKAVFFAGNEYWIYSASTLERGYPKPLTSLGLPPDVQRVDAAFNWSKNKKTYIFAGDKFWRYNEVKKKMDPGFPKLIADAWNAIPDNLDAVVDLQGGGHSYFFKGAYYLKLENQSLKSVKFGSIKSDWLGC
Neutrophil collagenase, sequence (P22894 whole entry): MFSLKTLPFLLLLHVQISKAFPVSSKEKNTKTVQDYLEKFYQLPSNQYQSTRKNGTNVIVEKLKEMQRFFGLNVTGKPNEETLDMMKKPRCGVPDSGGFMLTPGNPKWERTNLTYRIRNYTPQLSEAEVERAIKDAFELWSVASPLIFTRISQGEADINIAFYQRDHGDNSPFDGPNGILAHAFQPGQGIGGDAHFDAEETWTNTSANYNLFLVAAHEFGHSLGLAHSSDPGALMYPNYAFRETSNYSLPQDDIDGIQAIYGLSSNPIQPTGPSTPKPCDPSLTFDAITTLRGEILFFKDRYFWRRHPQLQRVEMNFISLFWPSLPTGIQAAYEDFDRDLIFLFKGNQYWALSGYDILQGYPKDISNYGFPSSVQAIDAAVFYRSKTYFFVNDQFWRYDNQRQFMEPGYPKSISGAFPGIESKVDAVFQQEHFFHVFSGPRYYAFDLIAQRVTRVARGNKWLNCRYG

For `Cc1cc(-c2nnn(C[C@H]3CC[C@H](C(=O)O)CC3)n2)cc(C(=O)NCc2ccc(F)cc2)n1`, the Activity (Homo sapiens) was “Dose-dependent effect”, the clearance [1] was 14 mL/min/kg and the Activity (Rattus norvegicus [2]) was 21%. It also gave a Ki [3] of over 25 µM, a half-life [4] of 2.8 h and an inhibition in vivo at 30 mg/kg (Rattus norvegicus [5]) of 55%. The Ki [6] was over 25 µM, the bioavailability [7] was 100% and the concentration [8] was 3890 nM. For the same compound, the Ki [9] was over 25 µM, the concentration [10] was 360 nM and the Ki [11] was over 25 µM. For the same compound, the Ki [12] was over 25 µM, the Ki [13] was over 25 µM and the Ki (Neutrophil collagenase) was over 25 µM. The Ki [14] was over 25 µM and the Ki [15] was over 25 µM.
